The values below come from ChEMBL document CHEMBL1759971, “Substituted phenyl triazoles as selective inhibitors of 11β-Hydroxysteroid Dehydrogenase Type 1” (Bioorg Med Chem Lett, 2011).

Each structure is given as a SMILES string. A value given as a limit tells only on which side of the number the result lay.

Data set [1] concerns Mus musculus. The data set is described as follows: Inhibition of 11beta-HSD1 in ICR mouse assessed as conversion of [3H]cortisone to [3H]cortisol at 10 mg/kg, po after 4 hrs by scintillation counting. Type of data set: functional.
Data set [2] concerns the target T1, Nuclear receptor subfamily 1 group I member 2 (Homo sapiens, UniProt O75469).
T1 sequence (O75469 whole entry): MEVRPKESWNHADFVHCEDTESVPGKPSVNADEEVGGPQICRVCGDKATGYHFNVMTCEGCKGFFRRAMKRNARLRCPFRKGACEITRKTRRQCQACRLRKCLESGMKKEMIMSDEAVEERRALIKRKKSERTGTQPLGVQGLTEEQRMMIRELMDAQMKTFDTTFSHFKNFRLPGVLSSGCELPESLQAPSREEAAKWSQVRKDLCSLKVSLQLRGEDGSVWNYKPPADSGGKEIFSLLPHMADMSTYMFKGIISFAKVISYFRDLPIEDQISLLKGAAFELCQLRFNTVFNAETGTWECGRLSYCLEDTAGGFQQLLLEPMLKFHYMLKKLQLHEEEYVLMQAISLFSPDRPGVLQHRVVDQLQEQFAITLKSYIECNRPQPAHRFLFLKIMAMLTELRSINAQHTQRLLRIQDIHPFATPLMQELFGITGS
Nature of the data set: Agonist activity at PXR. Type of data set: functional.

Data set [3] addresses T1, Nuclear receptor subfamily 1 group I member 2. Nature of the data set: Agonist activity at PXR at 10 uM. Type of data set: functional.
In data set [4] the target is 11-beta-hydroxysteroid dehydrogenase 1 (Homo sapiens, UniProt P28845). Nature of the data set: Inhibition of human 11beta-HSD1 expressed in CHO-K1 cells assessed as conversion of [3H]cortisone to [3H]cortisol by scintillation counting. Type of data set: cell-based.
11-beta-hydroxysteroid dehydrogenase 1 (Homo sapiens, UniProt P28845), sequence (P28845 whole entry): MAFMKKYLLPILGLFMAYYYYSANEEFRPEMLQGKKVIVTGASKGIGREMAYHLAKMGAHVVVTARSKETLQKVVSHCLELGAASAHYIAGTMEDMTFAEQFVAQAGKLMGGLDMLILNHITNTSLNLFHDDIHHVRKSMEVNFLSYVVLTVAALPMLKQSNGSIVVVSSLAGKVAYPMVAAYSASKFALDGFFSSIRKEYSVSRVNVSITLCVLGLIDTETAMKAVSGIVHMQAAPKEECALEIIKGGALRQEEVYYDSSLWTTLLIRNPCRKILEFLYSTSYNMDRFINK
Data set [5] has as its target 11-beta-hydroxysteroid dehydrogenase 1 (Mus musculus, UniProt P50172). Nature of the data set: Inhibition of mouse 11beta-HSD1 expressed in CHO-K1 cells assessed as conversion of [3H]cortisone to [3H]cortisol by scintillation counting. Type of data set: cell-based.
Data set [6] concerns Mus musculus. The data set is described as follows: Inhibition of 11beta-HSD1 in ICR mouse assessed as conversion of [3H]cortisone to [3H]cortisol at 10 mg/kg, po after 16 hrs by scintillation counting. Type of data set: functional.
In data set [7] the target is T2, 11-beta-hydroxysteroid dehydrogenase type 2 (Homo sapiens, UniProt P80365).
T2 sequence (P80365 whole entry): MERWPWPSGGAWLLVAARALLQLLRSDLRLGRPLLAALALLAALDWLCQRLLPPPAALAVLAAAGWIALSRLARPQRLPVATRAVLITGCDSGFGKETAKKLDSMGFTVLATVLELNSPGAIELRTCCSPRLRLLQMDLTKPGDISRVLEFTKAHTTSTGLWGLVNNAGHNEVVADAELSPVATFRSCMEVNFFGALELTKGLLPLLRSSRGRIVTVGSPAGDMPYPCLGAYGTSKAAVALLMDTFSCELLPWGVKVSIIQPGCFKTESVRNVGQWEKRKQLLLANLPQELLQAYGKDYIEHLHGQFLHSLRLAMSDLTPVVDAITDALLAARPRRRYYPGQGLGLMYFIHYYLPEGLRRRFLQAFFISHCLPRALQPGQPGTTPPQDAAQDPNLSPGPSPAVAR
Nature of the data set: Inhibition of human 11beta-HSD2.

Data set [8] concerns the target T3, 11-beta-hydroxysteroid dehydrogenase type 2 (Mus musculus, UniProt P51661).
T3 sequence (P51661 whole entry): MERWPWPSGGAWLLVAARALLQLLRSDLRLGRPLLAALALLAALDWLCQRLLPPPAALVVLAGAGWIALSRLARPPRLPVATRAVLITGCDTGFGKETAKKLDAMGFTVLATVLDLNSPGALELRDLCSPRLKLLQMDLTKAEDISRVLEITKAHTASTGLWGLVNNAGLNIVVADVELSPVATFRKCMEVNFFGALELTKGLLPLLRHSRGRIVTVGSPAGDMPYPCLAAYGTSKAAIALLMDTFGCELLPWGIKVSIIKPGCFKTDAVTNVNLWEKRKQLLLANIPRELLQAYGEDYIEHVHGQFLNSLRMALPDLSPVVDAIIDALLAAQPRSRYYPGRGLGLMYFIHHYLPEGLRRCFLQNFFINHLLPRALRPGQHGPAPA
Nature of the data set: Inhibition of mouse 11beta-HSD2.

11-beta-hydroxysteroid dehydrogenase 1 (Mus musculus, UniProt P50172), sequence (P50172 whole entry): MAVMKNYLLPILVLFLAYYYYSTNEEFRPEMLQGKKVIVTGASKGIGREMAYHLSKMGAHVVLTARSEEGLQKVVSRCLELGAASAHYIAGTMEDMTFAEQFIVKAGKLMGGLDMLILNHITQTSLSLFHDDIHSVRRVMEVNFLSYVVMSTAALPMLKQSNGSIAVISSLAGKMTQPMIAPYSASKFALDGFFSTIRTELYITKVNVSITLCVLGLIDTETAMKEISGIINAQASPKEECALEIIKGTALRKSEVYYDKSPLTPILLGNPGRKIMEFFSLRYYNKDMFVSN

For orientation: inhibition in vivo means the change of the read-out against control, counted positive when it falls. The EC50 is the concentration needed to bring the measured effect to its halfway point. The term IC50 denotes the concentration that gives 50% inhibition. `Cn1c(-c2ccc(C(=O)NC(C)(C)C)cc2)nnc1C1(c2ccc(Cl)cc2)CCC1`: the inhibition in vivo at 10 mg/kg with Mus musculus [1] turned out to be 71%; with Mus musculus [6] it was 5%. In data set [2], the EC50 was over 30000 nM. Further, the Activity in data set [3] is 11%. For the same compound, the IC50 in data set [4] was 540 nM; in data set [5], 3 nM; in data set [7], over 4000 nM; in data set [8] it was over 4000 nM.
Consider `CC(=O)Nc1ccc(-c2nnc(C3(c4ccc(Cl)cc4)CCC3)n2C)c(Cl)c1`, for which the inhibition in vivo at 10 mg/kg was 79% in the data set with Mus musculus [1] and 27% with Mus musculus [6]. Further, the EC50 in data set [2] is over 30000 nM. The Activity in data set [3] is listed as 34%. Besides, the IC50 is under 1 nM in data set [4], under 1 nM in data set [5], over 4000 nM in data set [7] and over 4000 nM in data set [8].
On to `Cn1c(-c2ccc(C(N)=O)cc2C(N)=O)nnc1C1(c2ccc(Cl)cc2)CCC1`, for which the inhibition in vivo at 10 mg/kg with Mus musculus [1] is -11%; in the data set with Mus musculus [6] it was 0%. Further, the EC50 in data set [2] was over 30000 nM. Further, the Activity in data set [3] is -7%. The IC50 is 2.2 nM in data set [4], 150 nM in data set [5], over 4000 nM in data set [7] and over 4000 nM in data set [8].
With `Cn1c(-c2ccc(-c3cnc(N)nc3)cc2)nnc1C1(c2ccc(Cl)cc2)CCC1`, the inhibition in vivo at 10 mg/kg in the data set on Mus musculus [1] was 34%; with Mus musculus [6], -5%. Besides, the EC50 in data set [2] was over 30000 nM. Also, the Activity in data set [3] amounted to 3%. Besides, the IC50 in data set [4] was 2.2 nM; in data set [5], 2.2 nM; in data set [7] it was over 4000 nM; in data set [8], over 4000 nM.
As to `Cn1c(-c2ccc(C(=O)O)cc2)nnc1C1(c2ccc(Cl)cc2)CCC1`, the values for the inhibition in vivo at 10 mg/kg in the data set with Mus musculus [1] and in the data set on Mus musculus [6] were 10% and -8%, respectively. Also, the EC50 in data set [2] is over 30000 nM. For the same compound, the Activity in data set [3] was -1%. The IC50 in data set [4] is 76 nM; in data set [5], 87 nM; in data set [7], over 4000 nM; in data set [8], over 4000 nM.
In the case of `CCNC(=O)c1ccc(-c2nnc(C3(c4ccc(Cl)cc4)CCC3)n2C)cc1`, the inhibition in vivo at 10 mg/kg in the data set with Mus musculus [1] was 71%; in the data set with Mus musculus [6], 0%. This compound also gave a half-maximal effective concentration (EC50) in data set [2] of over 30000 nM. In addition, the Activity in data set [3] is 18%. Besides, the half-inhibitory concentration (IC50) in data set [4] was 69 nM; in data set [5], 7.8 nM; in data set [7] it was over 4000 nM; in data set [8] it was over 4000 nM.
In the case of `Cn1c(-c2ccc(-c3cccnc3)cc2F)nnc1C1(c2ccc(Cl)cc2)CCC1`, the inhibition in vivo at 10 mg/kg was found to be 86% with Mus musculus [1] and 15% with Mus musculus [6]. Also, in data set [2], the EC50 was over 30000 nM. In data set [3], the Activity turned out to be 43%. The IC50 is 1.8 nM in data set [4], 1.6 nM in data set [5], over 4000 nM in data set [7] and over 4000 nM in data set [8].
In the case of `Cn1c(-c2ccc(NC(=O)c3ccno3)cc2)nnc1C1(c2ccc(Cl)cc2)CCC1`, the results for the inhibition in vivo at 10 mg/kg in the data set with Mus musculus [1] and in the data set with Mus musculus [6] were 69% and 11%, respectively. Moreover, the EC50 in data set [2] is over 30000 nM. The Activity in data set [3] is reported as 21%. Also, the IC50 is 8 nM in data set [4], 2.8 nM in data set [5], over 4000 nM in data set [7] and over 4000 nM in data set [8].
With `Cn1c(-c2ccc(NC(=O)c3cccs3)cc2)nnc1C1(c2ccc(Cl)cc2)CCC1`, the inhibition in vivo at 10 mg/kg in the data set on Mus musculus [1] turned out to be 63%; with Mus musculus [6], 2%. In data set [2], this compound displayed an EC50 of 8700 nM. In data set [3], the Activity is recorded as 55%. Also, the IC50 is 8.7 nM in data set [4], 1 nM in data set [5], over 4000 nM in data set [7] and over 4000 nM in data set [8].
In the case of `Cn1c(-c2ccc(NC(=O)c3cnccn3)cc2Cl)nnc1C1(c2ccc(Cl)cc2)CCC1`, the inhibition in vivo at 10 mg/kg with Mus musculus [1] turned out to be 82%; in the data set with Mus musculus [6], 46%. The compound further gave an EC50 in data set [2] of over 30000 nM. Besides, in data set [3], the Activity is given as 33%. In addition, the concentration for half-maximal inhibition (IC50) in data set [4] is 2.6 nM; in data set [5], 1.9 nM; in data set [7] it was over 4000 nM; in data set [8], over 4000 nM.
Turning to `Cn1c(-c2ccc(-c3cccnc3)cc2O)nnc1C1(c2ccc(Cl)cc2)CCC1`, the figures for the inhibition in vivo at 10 mg/kg with Mus musculus [1] and in the data set with Mus musculus [6] were 59% and 10%, respectively. In data set [2], this compound displayed an EC50 of over 30000 nM. The Activity in data set [3] came to 45%. Further, the IC50 is 38 nM in data set [4], 1 nM in data set [5], over 4000 nM in data set [7] and over 4000 nM in data set [8].
In the case of `Cc1noc(C)c1-c1ccc(-c2nnc(C3(c4ccc(Cl)cc4)CCC3)n2C)cc1`, the inhibition in vivo at 10 mg/kg is 63% in the data set on Mus musculus [1] and 9% in the data set on Mus musculus [6]. The same compound returned an EC50 in data set [2] of over 30000 nM. In addition, the Activity in data set [3] amounted to 26%. The IC50 in data set [4] is 4.8 nM; in data set [5] it was 3.4 nM; in data set [7] it was over 4000 nM; in data set [8], over 4000 nM.
For `Cn1c(-c2ccc(-c3cc(=O)[nH]cn3)cc2)nnc1C1(c2ccc(Cl)cc2)CCC1`, the inhibition in vivo at 10 mg/kg came out at 26% in the data set on Mus musculus [1] and 14% in the data set on Mus musculus [6]. This compound also returned an EC50 in data set [2] of over 30000 nM. Further, the Activity in data set [3] turned out to be 15%. For the same compound, the IC50 in data set [4] is 8.8 nM; in data set [5] it was 2.8 nM; in data set [7], over 4000 nM; in data set [8], over 4000 nM.
In the case of `Cn1c(-c2ccc(C(N)=O)cc2)nnc1C1(c2ccc(Cl)cc2)CCC1`, the inhibition in vivo at 10 mg/kg with Mus musculus [1] was 35%; in the data set with Mus musculus [6] it was 4%. For the same compound, the EC50 in data set [2] was over 30000 nM. Moreover, the Activity in data set [3] turned out to be 21%. In addition, the IC50 in data set [4] was 1 nM; in data set [5], 26 nM; in data set [7] it was over 4000 nM; in data set [8] it was over 4000 nM.
`Cn1c(-c2ccc(C(N)=O)cc2Cl)nnc1C1(c2ccc(Cl)cc2)CCC1`: the inhibition in vivo at 10 mg/kg in the data set on Mus musculus [1] was 57%; in the data set on Mus musculus [6], 12%. Further, the EC50 in data set [2] was over 30000 nM. Moreover, the Activity in data set [3] amounted to 16%. Besides, the IC50 was under 1 nM in data set [4], 1 nM in data set [5], over 4000 nM in data set [7] and over 4000 nM in data set [8].
Regarding `Cn1c(-c2ccc(-c3ccon3)cc2)nnc1C1(c2ccc(Cl)cc2)CCC1`, the values for the inhibition in vivo at 10 mg/kg in the data set with Mus musculus [1] and in the data set on Mus musculus [6] were 95% and 67%, respectively. Besides, the EC50 in data set [2] was over 30000 nM. Besides, the Activity in data set [3] worked out at 35%. For the same compound, the IC50 is 11 nM in data set [4], 6 nM in data set [5], over 4000 nM in data set [7] and over 4000 nM in data set [8].
With `Cc1cc(C(=O)Nc2ccc(-c3nnc(C4(c5ccc(Cl)cc5)CCC4)n3C)cc2)c(C)o1`, the inhibition in vivo at 10 mg/kg was found to be 91% with Mus musculus [1] and 81% in the data set on Mus musculus [6]. Moreover, the EC50 in data set [2] is over 30000 nM. Also, in data set [3], the Activity is 18%. In addition, the IC50 in data set [4] was 9.5 nM; in data set [5], under 1 nM; in data set [7], over 4000 nM; in data set [8], over 4000 nM.
Consider `Cn1c(-c2ccc(C(=O)N3CCCC3)cc2)nnc1C1(c2ccc(Cl)cc2)CCC1`, for which the inhibition in vivo at 10 mg/kg in the data set with Mus musculus [1] was found to be 24%; in the data set with Mus musculus [6], 0%. The compound also showed a half-maximal effective concentration (EC50) in data set [2] of over 30000 nM. The Activity in data set [3] turned out to be 10%. Besides, the IC50 was 650 nM in data set [4], 130 nM in data set [5], over 4000 nM in data set [7] and over 4000 nM in data set [8].
